# Laboratory results published in ChEMBL document CHEMBL1201862, “PubChem BioAssay data set” (2004).
#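 How tested: cells in 96-well plates exposed to compound for 48 hours at five concentrations. At the GI50, growth is halved.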 Calls of active or inactive are those of the source. Cut-off read from the data, not from the text of the source: active = GI50 up to about 1.1 µM and inactive = higher.
# Experiments:
# Test in all cases: DTP human tumour cell line panel, 48 h
# TK-10 = test system: TK-10
# MCF7 = test system: MCF7
# SF-539 = test system: SF-539
# CCRF-CEM = test system: CCRF-CEM
# U-251 = test system: U-251
# UACC-257 = test system: UACC-257
# SF-295 = test system: SF-295
# CAKI-1 = test system: CAKI-1
# 786-0 = test system: 786-0
# RPMI-8226 = test system: RPMI-8226
# MDA-MB-435 = test system: MDA-MB-435
# SNB-75 = test system: SNB-75
# SK-MEL-28 = test system: SK-MEL-28
# COLO 205 = test system: COLO 205
# BT-549 = test system: BT-549
# HOP-92 = test system: HOP-92
# NCI/ADR-RES = test system: NCI/ADR-RES
# HT-29 = test system: HT-29
# SK-MEL-2 = test system: SK-MEL-2
# SR = test system: SR
# HCT-15 = test system: HCT-15
# OVCAR-4 = test system: OVCAR-4
# NCI-H23 = test system: NCI-H23
# SNB-19 = test system: SNB-19
# OVCAR-3 = test system: OVCAR-3
# IGROV-1 = test system: IGROV-1
# HCC 2998 = test system: HCC 2998
# KM12 = test system: KM12
# T47D = test system: T47D
# LOX IMVI = test system: LOX IMVI
# SW-620 = test system: SW-620
# UO-31 = test system: UO-31
# HL-60 = test system: HL-60
# DU-145 = test system: DU-145
# A549 = test system: A549
# OVCAR-8 = test system: OVCAR-8
# SK-OV-3 = test system: SK-OV-3
# HCT-116 = test system: HCT-116
# K562 = test system: K562
# SK-MEL-5 = test system: SK-MEL-5
# SF-268 = test system: SF-268
# OVCAR-5 = test system: OVCAR-5
# EKVX = test system: EKVX
# A498 = test system: A498
# Hs-578T = test system: Hs-578T
# HOP-62 = test system: HOP-62
# NCI-H226 = test system: NCI-H226
# M14 = test system: M14
# MDA-MB-231 = test system: MDA-MB-231
# NCI-H522 = test system: NCI-H522
# SN12C = test system: SN12C
# Malme-3M = test system: Malme-3M
# PC-3 = test system: PC-3
# NCI-H460 = test system: NCI-H460
# UACC-62 = test system: UACC-62
# MDA-N = test system: MDA-N
# ACHN = test system: ACHN
# RXF 393 = test system: RXF 393
# MOLT-4 = test system: MOLT-4
smiles,measurement,setting,value
O=C1C(S(=O)(=O)c2ccccc2)=C(CS(=O)(=O)c2ccccc2)[C@@H](OCc2ccccc2)[C@@H]1OCc1ccccc1,GI50,TK-10,31.8 µM (inactive)
same,GI50,MCF7,27.4 µM (inactive)
same,GI50,SF-539,19.2 µM (inactive)
same,GI50,CCRF-CEM,14 µM (inactive)
same,GI50,U-251,19.6 µM (inactive)
same,GI50,UACC-257,21.6 µM (inactive)
same,GI50,SF-295,18.7 µM (inactive)
same,GI50,CAKI-1,30.1 µM (inactive)
same,GI50,786-0,26.4 µM (inactive)
same,GI50,RPMI-8226,11.6 µM (inactive)
same,GI50,MDA-MB-435,26.9 µM (inactive)
same,GI50,SNB-75,> 100 µM (inactive)
same,GI50,SK-MEL-28,18.1 µM (inactive)
same,GI50,COLO 205,25.8 µM (inactive)
same,GI50,BT-549,13.5 µM (inactive)
same,GI50,HOP-92,12.4 µM (inactive)
same,GI50,NCI/ADR-RES,20.7 µM (inactive)
same,GI50,HT-29,13.5 µM (inactive)
same,GI50,SK-MEL-2,16.2 µM (inactive)
same,GI50,SR,14.5 µM (inactive)
same,GI50,HCT-15,18.2 µM
same,GI50,OVCAR-4,20.7 µM (inactive)
same,GI50,NCI-H23,16.9 µM (inactive)
same,GI50,SNB-19,34.3 µM (inactive)
same,GI50,OVCAR-3,12.5 µM (inactive)
same,GI50,IGROV-1,17.1 µM (inactive)
same,GI50,HCC 2998,18.9 µM (inactive)
same,GI50,KM12,0.0519 µM (active)
same,GI50,T47D,32.7 µM (inactive)
same,GI50,LOX IMVI,15.8 µM (inactive)
same,GI50,SW-620,18.7 µM (inactive)
same,GI50,UO-31,18.5 µM (inactive)
same,GI50,HL-60,17.1 µM (inactive)
same,GI50,DU-145,35.2 µM (inactive)
same,GI50,A549,27.7 µM (inactive)
same,GI50,OVCAR-8,18.5 µM (inactive)
same,GI50,SK-OV-3,41.5 µM (inactive)
same,GI50,HCT-116,13.6 µM (inactive)
same,GI50,K562,14.4 µM (inactive)
same,GI50,SK-MEL-5,18.2 µM (inactive)
same,GI50,SF-268,29.9 µM (inactive)
same,GI50,OVCAR-5,27.9 µM (inactive)
same,GI50,EKVX,27.2 µM (inactive)
same,GI50,A498,23.3 µM (inactive)
same,GI50,Hs-578T,23 µM (inactive)
same,GI50,HOP-62,19 µM (inactive)
same,GI50,NCI-H226,17.6 µM (inactive)
same,GI50,M14,15.7 µM (inactive)
same,GI50,MDA-MB-231,23.9 µM (inactive)
same,GI50,NCI-H522,16 µM (inactive)
same,GI50,SN12C,22.3 µM (inactive)
same,GI50,Malme-3M,17.6 µM (inactive)
same,GI50,PC-3,25.8 µM (inactive)
same,GI50,NCI-H460,21 µM (inactive)
same,GI50,UACC-62,17.3 µM (inactive)
same,GI50,MDA-N,23 µM (inactive)
same,GI50,ACHN,31.8 µM (inactive)
same,GI50,RXF 393,13.9 µM (inactive)
same,GI50,MOLT-4,16.9 µM (inactive)
O=C1Nc2ccccc2SC1=C(C(=O)c1ccccc1)C(=O)c1ccccc1,GI50,TK-10,63.4 µM (inactive)
same,GI50,MCF7,34.9 µM (inactive)
same,GI50,SF-539,39.6 µM (inactive)
same,GI50,CCRF-CEM,4.17 µM (inactive)
same,GI50,U-251,33.2 µM (inactive)
same,GI50,UACC-257,33.3 µM (inactive)
same,GI50,SF-295,17.1 µM (inactive)
same,GI50,CAKI-1,60.4 µM (inactive)
same,GI50,786-0,43.7 µM (inactive)
same,GI50,RPMI-8226,28.8 µM (inactive)
same,GI50,MDA-MB-435,21.8 µM (inactive)
same,GI50,SNB-75,51.5 µM (inactive)
same,GI50,SK-MEL-28,55.6 µM (inactive)
same,GI50,COLO 205,29.2 µM (inactive)
same,GI50,BT-549,30.5 µM (inactive)
same,GI50,HOP-92,38.1 µM (inactive)
same,GI50,NCI/ADR-RES,40.1 µM (inactive)
same,GI50,HT-29,32.4 µM (inactive)
same,GI50,SK-MEL-2,24.8 µM (inactive)
same,GI50,SR,17.7 µM (inactive)
same,GI50,HCT-15,37.5 µM
same,GI50,OVCAR-4,43.2 µM (inactive)
same,GI50,NCI-H23,29.7 µM (inactive)
same,GI50,SNB-19,41.2 µM (inactive)
same,GI50,OVCAR-3,12.3 µM (inactive)
same,GI50,IGROV-1,42.3 µM (inactive)
same,GI50,HCC 2998,22.2 µM (inactive)
same,GI50,KM12,34 µM (inactive)
same,GI50,T47D,53 µM (inactive)
same,GI50,LOX IMVI,31.3 µM (inactive)
same,GI50,SW-620,34.6 µM (inactive)
same,GI50,UO-31,53.3 µM (inactive)
same,GI50,HL-60,0.091 µM (active)
same,GI50,DU-145,38.1 µM (inactive)
same,GI50,A549,36.6 µM (inactive)
same,GI50,OVCAR-8,52.4 µM (inactive)
same,GI50,SK-OV-3,16 µM (inactive)
same,GI50,HCT-116,29.5 µM (inactive)
same,GI50,K562,4.06 µM (inactive)
same,GI50,SK-MEL-5,32.9 µM (inactive)
same,GI50,SF-268,32.1 µM (inactive)
same,GI50,OVCAR-5,27.8 µM (inactive)
same,GI50,EKVX,34.8 µM (inactive)
same,GI50,A498,32.4 µM (inactive)
same,GI50,Hs-578T,31.6 µM (inactive)
same,GI50,HOP-62,46.7 µM (inactive)
same,GI50,NCI-H226,45.8 µM (inactive)
same,GI50,M14,28.3 µM (inactive)
same,GI50,MDA-MB-231,27.1 µM (inactive)
same,GI50,NCI-H522,20.4 µM (inactive)
same,GI50,SN12C,24 µM (inactive)
same,GI50,Malme-3M,> 85.7 µM (inactive)
same,GI50,PC-3,26.3 µM (inactive)
same,GI50,NCI-H460,28.1 µM (inactive)
same,GI50,UACC-62,20.7 µM (inactive)
same,GI50,MDA-N,19.7 µM (inactive)
same,GI50,ACHN,42.1 µM (inactive)
same,GI50,RXF 393,55 µM (inactive)
same,GI50,MOLT-4,1.04 µM (active)
